Data as given in patent US12016682B2, “In-vivo monitoring of molecular targets” (The Regents of the University Of California, priority 2013, dated 2024).
{C7MB} = methylene blue on (CH2)7 linker; {C11SH} = thiol on (CH2)11 linker; {MB} = methylene blue redox label; {C6SH} = thiol on (CH2)6 linker

How the values were obtained:
[1] = test system: DOX probe; experiment: DOX probe specificity characterization against off-target chemotherapy agents; assay type: binding; conditions: 1,000× greater concentrations (1 mM vs DOX 1 μM), 1×SSC
Description: Probes were characterized in terms of affinity, specificity and kinetic response. […] At each concentration, the signal was permitted to equilibrate and then ten subsequent readings were obtained from two separate electrodes and averaged as the reported values. […] Voltammograms were taken in immediate succession to provide maximal temporal resolution. Dose-response curves were obtained by fitting data to a one-site binding model, and kinetic-response curves were obtained by fitting data to a one-phase association and dissociation model.

[2] = DOX probe characterization: dose-response (affinity) and kinetic response by square-wave voltammetry; assay type: binding
Description: Aptamer probes were synthesized with the following sequences: DOX-probe: 5′-HS—(CH2)6-ACCATCTGTGTAAGGGGTAAGGGGTGGT-MB-3′ (SEQ ID NO: 1), Kanamycin-probe: 5′-HS—(CH2)6-GGGACTTGGTTTAGGTAATGAGTCCC-MB-3′ (SEQ ID NO: 2). DOX-probe is a truncated form of an anthracycline aptamer. A region of the aptamer suspected of supporting a hairpin structure was selected, with an apparent active binding site in the base. The stem was engineered to enable effective signal transduction through stabilization of the folded state. The kanamycin probe was adapted from that described in Rowe et al. Analytical chemistry 82, 7090-5 (2010). Each probe was thiolated at the 5′-end to facilitate self-assembly on the gold working electrodes, and conjugated with an MB redox label at the 3′-end to enable target binding-induced charge transfer modulation. Prior to probe immobilization, the gold electrodes were first cleaned via cyclic voltammetry, with twelve potential sweeps ranging from −0.8 to 0.9 V (with respect to the platinum reference electrode) applied at 0.1 V·s^−1 with a sample interval of 0.001 V and 10 μA sensitivity in 50 mM H2SO4. Subsequently, the chamber was flushed with DI water, followed by the addition of probe solution. The probe solution was prepared by adding 2 μL of 10 mM tris(2-carboxyethyl)phosphine (TCEP) to 1 μL of 200 μM probe stock and incubating at room temperature for 60 minutes to enable cleavage of disulphide bonds. The solution was then diluted to 2 μM in 1× saline-sodium citrate (SSC) buffer for effective self-assembly. The chip was incubated with probe solution for 1 hour at room temperature, permitting the thiolated aptamer to form a monolayer on the gold electrode surface. The chamber was then flushed with 5 mL DI water for 5 minutes, and the remaining electrode area was incubated for two hours in passivation solution, consisting of 1 μL of stock 6-mercaptohexanol diluted to 3 mM in DI water. The chamber was flushed again with DI water and filled with 1×SSC, after which the device was stored at 4° C. until use.
Electrochemical measurements were conducted with an electrochemical analyzer (730B, CH Instruments, Austin, TX). The chip was connected via 8-pin card-edge connector and subjected to SWV scans. Working electrodes were scanned in continuous succession with an average scan period of 8 seconds. To accommodate potential shifts due to the non-ideal on-chip pseudo-reference electrodes, a 400 mV potential range was scanned to reliably capture the MB redox peak. For optimal frequency determination for the KDM, frequency-sweep scans were performed from 5 Hz to 800 Hz, with amplitude of 25 mV. A custom peak-fitting script was created to fit the SWV measurements with a Gaussian curve on a hyperbolic baseline. Peak currents were then normalized to a baseline peak current to generate signal gain. Unless otherwise noted, all reported gains were obtained via KDM with the difference divided average of gains from 7.5 Hz and 75 Hz signals.
Probes were characterized in terms of affinity, specificity and kinetic response. For affinity measurements, a dose-response curve was obtained by subjecting the probe to DOX concentrations (for the DOX-probe) ranging from 50 nM to 10 μM in 1×SSC at a flow-rate of 1 mL·h^−1. At each concentration, the signal was permitted to equilibrate and then ten subsequent readings were obtained from two separate electrodes and averaged as the reported values. The same procedure was applied for specificity characterization, where DOX was injected at 1 μM while off-target reagents mitomycin-C (MTC), ifosfamide (Ifex), Mesna, dacarbazine (DTIC) or cisplatin (CDDP) were injected at 1 mM. […] Voltammograms were taken in immediate succession to provide maximal temporal resolution. Dose-response curves were obtained by fitting data to a one-site binding model, and kinetic-response curves were obtained by fitting data to a one-phase association and dissociation model. […]

[3] = Cocaine/procaine binding aptamer sensor step response to target in buffer and whole blood (SWV)
[4] = biphasic, cited from earlier work
[5] = male, Sprague-Dawley, rat, in vivo
Protocol: (§1) All rats used in this work were Sprague-Dawley males from Charles River Laboratories (Hollister, CA, USA). To safely mount the device and catheters, rats were sedated throughout the duration of the experiment via isoflurane gas (1-4%) and ketamine/xylazine (56.25 mg·kg^−1 and 7.5 mg·kg^−1 respectively). Animals were placed dorsal side down on a heating pad. The right jugular vein was isolated and catheterized to provide an intravenous injection port. An initial injection of 0.41 mL heparin solution (1000 U·mL^−1 USP) was performed, followed by periodic injections of 0.1 mL every 40 minutes to prevent clot formation in the catheters. The left jugular vein was isolated and cannulated. A 0.3 mL pre-drug injection control blood sample was taken and set aside for the duration of the experiment. The end of a 10-cm length of Tygon® tubing (2.29-mm OD and 0.76-mm ID) was inserted into the cannula to connect the intravenous blood source to the blood port of the MEDIC device. […] Target concentrations were adjusted for a constant 0.3 mL injection volume, and injected via the input catheter in a 30-second bolus at >30 min intervals. Upon completion of each experiment, subjects were euthanized via intravenous Euthasol® injection. The MEDIC input tube was then redirected to the control blood to obtain post-experiment readings of zero-target blood samples.
(§2) A rat with a body surface area of 620 cm^2 was dosed with increasing DOX concentrations (0-2 mg·m^−2) over 4.5 hours (FIG. 12, Panel A).

[6] = humans; cited from earlier work
[7] = Continuous real-time MEDIC measurement of in vivo DOX concentration in live rats; conditions: male, Sprague-Dawley, rat, 1 mg·m^−2, alpha-phase half-life t1/2^α
Protocol: as §1, §2

[8] = in vivo; conditions: male, Sprague-Dawley, rat, iv
Protocol: A calibration curve was obtained (FIG. 5), then doses of 32, 64 and 96 mg·kg^−1 were serially injected, followed by a baseline control.

[9] = stated, not measured here; cited from earlier work
[10] = after a 5 minute pulse of 600 nM DOX

For `O=S(=O)(O)CCS` [mesna], the “sensor response to off-target drug” value [1] was “did not respond”.
In the case of “5′-HS—(CH2)6-ACCATCTGTGTAAGGGGTAAGGGGTGGT-MB-3′ (ACCATCTGTGTAAGGGGTAAGGGGTGGT; DNA, 5' {C6SH}, 3' {MB}, backbone and methylation of C not given here) [DOX probe, truncated form of an anthracycline DNA aptamer, thiolated at the 5′-end, MB redox label at the 3′-end]”, the “time to reach 90% saturation” value ([2]; DOX pulse) is reported as ≤ 45 s, the “time to return to 10% of baseline” value ([2]; after DOX pulse) is reported as ≤ 100 s and the koff [2, 10] is reported as 0.0225 ± 0.00083 s⁻¹. The kon [2, 10] was 50000 ± 5830 M⁻¹ s⁻¹, the dynamic range ([2]; in buffer) was 0.1 to 10 µM and the “limit of detection (LOD)” value ([2]; in buffer) was 10 nM. The Kd ([2]; signal gain fitted to a Langmuir isotherm, DOX 50 nM to 10 μM in 1×SSC, read-out: apparent Kd) was 0.824 µM.
For `N.N.[Cl][Pt][Cl]` [cisplatin], the “sensor response to off-target drug” value [1] was “did not respond”.
For “5′-HS—(CH2)11-AGACAAGGAAAATCCTTCAATGAAGTGGGTCG-(CH2)7-MB-3′ (AGACAAGGAAAATCCTTCAATGAAGTGGGTCG; DNA, 5' {C11SH}, 3' {C7MB}, backbone and methylation of C not given here) [cocaine/procaine binding aptamer, DNA aptamer thiolated on the 5′-end, methylene blue redox label at the 3′-end]”, the Kd [3] was ~190 µM, the koff ([3]; 128 μM target in 1×SSC buffer) was ~0.031 s⁻¹ and the kon ([3]; 128 μM target in 1×SSC buffer) was ~160 M⁻¹ s⁻¹. For the same compound, the signal gain ([3]; 128 μM target in 1×SSC buffer, before blood exposure) was 60%, the signal gain ([3]; 128 μM target in buffer after whole blood exposure) was ~20% and the signal gain ([3]; 128 μM target in whole blood, after ~1 h whole blood exposure at room temperature) was ~10%. For the same compound, the “affinity for its target at 37° C.” value ([3]; 37° C.) was “loses affinity for its target” and the “performance at room temperature” value ([3]; room temperature) was “performs well”.
In the case of `C[C@@H]1[C@H](O)[C@@H](C)/C=C/C=C/C=C/C=C/C=C/C=C/C=C/[C@H](O[C@@H]2O[C@H](C)[C@@H](O)[C@H](N)[C@@H]2O)C[C@@H]2O[C@](O)(C[C@@H](O)C[C@@H](O)[C@H](O)CC[C@@H](O)C[C@@H](O)CC(=O)O[C@H]1C)C[C@H](O)[C@H]2C(=O)O` [Amphotericin B], the “half-life, initial phase” value ([4]; initial phase) is listed as 1440 min and the “half-life, second phase” value ([4]; second phase) is listed as 15 days.
In the case of `COc1cccc2c1C(=O)c1c(O)c3c(c(O)c1C2=O)C[C@@](O)(C(=O)CO)C[C@@H]3O[C@H]1C[C@H](N)[C@H](O)[C@H](C)O1` [DOX, doxorubicin], the “Pearson correlation coefficient of t1/2^α as a function of body surface area” value [5] is given as −0.73, the “alpha-phase plasma clearance time” value [6] is given as 6 to 26 min and the half-life ([7]; first of two injections of 1 mg·m^−2) is given as 10.7 ± 0.5 min. It also gave a half-life ([7]; second of two injections of 1 mg·m^−2) of 10.8 ± 1 min.
With `CO[C@@]12[C@H](COC(N)=O)C3=C(C(=O)C(C)=C(N)C3=O)N1C[C@@H]1N[C@@H]12` [mitomycin-C] the “sensor response to off-target drug” value [1] was “did not respond”.
For `O=P1(NCCCl)OCCCN1CCCl` (centres unmarked) [ifosfamide], the “sensor response to off-target drug” value [1] was “did not respond”.
For `NC[C@H]1O[C@H](O[C@H]2[C@H](O)[C@@H](O[C@H]3O[C@H](CO)[C@@H](O)[C@H](N)[C@H]3O)[C@H](N)C[C@@H]2N)[C@H](O)[C@@H](O)[C@@H]1O` [kanamycin], the half-life ([8]; 32 mg/kg) was 7.2 min, the half-life ([8]; 64 mg/kg) was 10 min and the half-life ([8]; 96 mg/kg) was 9 min. The “beta phase t1/2^β” value [9] was 120 to 180 min.
